Source: US9376387B2 (priority 2013, dated 2016)

Key:
[1] = biological target: T1, hAChE (human erythrocyte membranes as a AChE source) (Homo sapiens, UniProt P22303); assay: acetylcholinesterase (AChE) activity, modified Ellman method; format: biochemical; conditions: hAChE IC50, modified Ellman method, acetylthiocholine iodide substrate, pH=7.4
T1 construct: human erythrocyte membranes as a AChE source; from tissue; host or cells: human erythrocyte membranes

[2] = biological target: EqBuChE (Equus caballus, UniProt P81908); assay: biochemical; conditions: EqBuChE IC50
EqBuChE, sequence (P81908 whole entry): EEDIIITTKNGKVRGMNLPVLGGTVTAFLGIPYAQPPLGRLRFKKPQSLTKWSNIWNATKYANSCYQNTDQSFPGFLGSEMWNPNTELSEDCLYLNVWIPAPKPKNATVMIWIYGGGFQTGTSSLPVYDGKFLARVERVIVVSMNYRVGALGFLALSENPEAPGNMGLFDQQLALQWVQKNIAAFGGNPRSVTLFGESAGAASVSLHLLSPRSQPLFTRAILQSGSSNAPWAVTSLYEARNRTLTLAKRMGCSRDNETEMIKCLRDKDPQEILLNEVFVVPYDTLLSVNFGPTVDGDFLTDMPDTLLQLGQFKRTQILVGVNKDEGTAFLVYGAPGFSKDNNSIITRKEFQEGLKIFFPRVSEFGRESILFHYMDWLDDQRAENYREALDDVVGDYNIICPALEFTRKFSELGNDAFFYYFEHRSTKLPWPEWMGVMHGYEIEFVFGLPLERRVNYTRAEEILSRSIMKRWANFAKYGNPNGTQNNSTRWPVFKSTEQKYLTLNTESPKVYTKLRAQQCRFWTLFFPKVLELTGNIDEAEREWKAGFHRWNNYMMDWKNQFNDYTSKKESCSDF

T1 sequence (P22303 32-617 isoform P22303-2 limits assumed): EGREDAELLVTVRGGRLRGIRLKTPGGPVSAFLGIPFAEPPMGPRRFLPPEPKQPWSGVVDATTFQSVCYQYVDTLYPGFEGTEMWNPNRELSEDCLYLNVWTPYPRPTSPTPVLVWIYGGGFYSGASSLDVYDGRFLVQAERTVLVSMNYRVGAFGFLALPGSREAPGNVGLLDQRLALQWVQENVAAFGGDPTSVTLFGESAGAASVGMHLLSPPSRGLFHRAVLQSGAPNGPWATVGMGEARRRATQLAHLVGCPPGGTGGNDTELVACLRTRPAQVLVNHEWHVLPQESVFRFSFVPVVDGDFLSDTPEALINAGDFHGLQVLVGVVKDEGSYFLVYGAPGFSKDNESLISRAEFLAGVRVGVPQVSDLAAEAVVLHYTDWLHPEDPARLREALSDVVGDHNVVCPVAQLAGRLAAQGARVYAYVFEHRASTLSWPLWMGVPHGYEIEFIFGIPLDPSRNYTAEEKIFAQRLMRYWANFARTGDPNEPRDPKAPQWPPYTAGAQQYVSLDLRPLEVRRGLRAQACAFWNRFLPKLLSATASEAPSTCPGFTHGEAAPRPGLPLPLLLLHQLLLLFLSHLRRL

Structure (SMILES) | IC50 [1] [nM] | IC50 [2] [nM]
COc1cc2c(cc1OC)C(=O)C(Cc1cc[n+](Cc3ccccc3Cl)cc1Br)C2 (centres unmarked) [Compound 140, 2-[[3-bromo-1-[(2-chlorophenyl)methyl]pyridin-1-ium-4-yl]methyl]-5,6-dimethoxy-indan-1-one bromide] | 0.255 | 984
COc1cc2c(cc1OC)C(=O)C(CC1C=CN(Cc3cccc(Cl)c3)C=C1C(C)=O)C2 (centres unmarked) [Compound 77, 2-[[3-acetyl-1-[(3-chlorophenyl)methyl]-4H-pyridin-4-yl]methyl]-5,6-dimethoxy-indan-1-one] | 543 | 13500
COc1ccc2c(c1)CCC(Cc1cc[n+](Cc3cccc(C)c3)cc1C(C)=O)C2=O (centres unmarked) [Compound 120, 2-[[3-acetyl-1-(m-tolylmethyl)pyridin-1-ium-4-yl]methyl]-6-methoxy-tetralin-1-one bromide] | 110 | 596
COc1ccc2c(c1)CCC(Cc1cc[n+](Cc3cccc(C)c3)cc1Br)C2=O (centres unmarked) [Compound 118, 2-[[3-bromo-1-(m-tolylmethyl)pyridin-1-ium-4-yl]methyl]-6-methoxy-tetralin-1-one bromide] | 16.5 | 664
COc1ccc2c(c1)CCC(Cc1cc[n+](Cc3ccccc3[N+](=O)[O-])cc1C(C)=O)C2=O (centres unmarked) [Compound 125, 2-[[3-acetyl-1-[(2-nitrophenyl)methyl]pyridin-1-ium-4-yl]methyl]-6-methoxy-tetralin-1-one bromide] | 57.7 | 592
COc1ccc2c(c1)CC(Cc1cc[n+](Cc3ccccc3C)cc1C(C)=O)C2=O (centres unmarked) [Compound 138, 2-[[3-acetyl-1-(o-tolylmethyl)pyridin-1-ium-4-yl]methyl]-5-methoxy-indan-1-one bromide] | 30 | 2990
COc1ccc2c(c1)CCC(Cc1cc[n+](Cc3cccc([N+](=O)[O-])c3)cc1C(C)=O)C2=O (centres unmarked) [Compound 123, 2-[[3-acetyl-1-[(3-nitrophenyl)methyl]pyridin-1-ium-4-yl]methyl]-6-methoxy-tetralin-1-one bromide] | 78.6 | 1320
COc1ccc2c(c1)CCC(Cc1cc[n+](Cc3ccccc3C)cc1C(C)=O)C2=O (centres unmarked) [Compound 121, 2-[[3-acetyl-1-(o-tolylmethyl)pyridin-1-ium-4-yl]methyl]-6-methoxy-tetralin-1-one bromide] | 10 | 433
COc1ccc2c(c1)CCC(Cc1cc[n+](Cc3ccccc3F)cc1C(C)=O)C2=O (centres unmarked) [Compound 127, 2-[[3-acetyl-1-[(2-fluorophenyl)methyl]pyridin-1-ium-4-yl]methyl]-6-methoxy-tetralin-1-one bromide] | 43 | 489
COc1ccc2c(c1)CCC(Cc1cc[n+](Cc3ccccc3)cc1Br)C2=O (centres unmarked) [Compound 117, 2-[(1-benzyl-3-bromo-pyridin-1-ium-4-yl)methyl]-6-methoxy-tetralin-1-one bromide] | 20 | 447
COc1cc2c(cc1OC)C(=O)C(Cc1cc[n+](Cc3cccc(Cl)c3)cc1C(C)=O)C2 (centres unmarked) [Compound 144, 2-[[3-acetyl-1-[(3-chlorophenyl)methyl]pyridin-1-ium-4-yl]methyl]-5,6-dimethoxy-indan-1-one bromide] | 3.2 | 3340
COc1cc2c(cc1OC)C(=O)C(Cc1cc[n+](Cc3ccccc3C)cc1Br)C2 (centres unmarked) [Compound 141, 2-[[3-bromo-1-(o-tolylmethyl)pyridin-1-ium-4-yl]methyl]-5,6-dimethoxy-indan-1-one bromide] | 0.053 | 2290
COc1ccc2c(c1)CCC(Cc1cc[n+](Cc3ccccc3)cc1C(C)=O)C2=O (centres unmarked) [Compound 119, 2-[(3-acetyl-1-benzyl-pyridin-1-ium-4-yl)methyl]-6-methoxy-tetralin-1-one bromide] | 71 | 412
CC(=O)C1=CN(Cc2ccccc2C)C=CC1CC1Cc2cc(C)c(C)cc2C1=O (centres unmarked) [Compound 166, 2-[[3-acetyl-1-(o-tolylmethyl)-4H-pyridin-4-yl]methyl]-5,6-dimethyl-indan-1-one] | 653 | 1260
COc1ccc2c(c1)CCC(Cc1cc[n+](Cc3cccc(F)c3)cc1C(C)=O)C2=O (centres unmarked) [Compound 128, 2-[[3-acetyl-1-[(3-fluorophenyl)methyl]pyridin-1-ium-4-yl]methyl]-6-methoxy-tetralin-1-one bromide] | 55 | 412
CC(=O)c1c[n+](Cc2ccccc2C)ccc1CC1Cc2cc3c(cc2C1=O)OCO3 (centres unmarked) [Compound 139, 6-[[3-acetyl-1-(o-tolylmethyl)pyridin-1-ium-4-yl]methyl]-5,6-dihydrocyclopenta[f][1,3]benzodioxol-7-one bromide] | 60 | 1620
